Assay results: patent US5916889A, “1,4-disubstituted piperazines” (Novo Nordisk A/S, priority 1996, dated 1999)

Tested on: histamine induced paw oedema
Assay: Histamine induced paw oedema test (rat)
Format: in vivo, rat (male Sprague-Dawley)
Conditions: 1.0 mg/kg, intraperitoneally 15 minutes before the anaesthetics, paw swelling 20 minutes after histamine (50 microliter, 3 mg/ml)
Procedure: Compounds of formula I may be used to treat all painful, hyperalgesic and/or inflammatory conditions in which C-fibres play a pathophysiological role by eliciting neurogenic pain or inflammation, i.e.:
I. Histamine induced paw oedema
The rat histamine paw oedema test was performed essentially as described by Amann et al. (Europ. J. Pharmacol. 279, 227-231, 1995). In brief 250-300 g male Sprague-Dawley rats were anaesthetized with pentobarbital sodium, and placed on a 32 degree (Celsius) heated table. Ten minutes later histamine (50 micoliter, 3 mg/ml) was injected in the right hind paw and 20 minutes hereafter the paw swelling was determined by water plethysmography (Ugo Basile). Test compounds were administered intraperitoneally at 15 minutes before the anaesthetics.
Values for inhibition of histamine induced oedema response for some representative compounds are recorded in table 1.

Cl.Cl.O=C(O)c1cccnc1N1CCN(CCC=C2c3cc(Cl)ccc3OCOc3ccc(Cl)cc32)CC1 [Example 2, 2-(4-(3-(2,10-Dichloro-12H-dibenzo[d,g][1,3]dioxocin-12-ylidene)-1-propyl)-piperazin-1-yl)-3-pyridinecarboxylic acid dihydrochloride]
% Oedema inhibition: 24%

Cl.O=C(O)c1cccc(N2CCN(CCCN3c4ccccc4CCc4ccccc43)CC2)n1 [Example 8, 6-(4-(3-(10,11-Dihydro-5H-dibenz[b,f]azepin-5-yl)-1-propyl)-1-piperazinyl)-2-pyridinecarboxylic acid hydrochloride]
% Oedema inhibition: 61%
